Publication PMC11227560, “Tyrosol blocks E. coli anaerobic biofilm formation via YbfA and FNR to increase antibiotic susceptibility” (Nature Communications, 2024)

Biological target: T1, YbfA (Escherichia coli, UniProt P0AAU2)
T1 construct: recombinant 6xHis-tagged YbfA (pET28a), ybfA gene cloned from E. coli W3110
Assay: isothermal titration calorimetry (ITC), […] °C
Format: binding

T1 sequence (P0AAU2 22-68): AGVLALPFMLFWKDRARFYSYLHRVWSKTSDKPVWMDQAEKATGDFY

OCCc1ccc(O)cc1 [tyrosol]
Kd: 4.65 ± 0.11 µM
